Data taken from article PMC3790851, “Improved Mass Spectrometry Assay For Plasma Hepcidin: Detection and Characterization of a Novel Hepcidin Isoform” (PLoS ONE, 2013).

Tests used:
[1] = Stability of hepcidin in plasma/serum at room temperature (WCX-TOF MS); assay type: in vitro ADME, human
Method: Spectra were analyzed by using Bruker Daltonics FlexAnalysis software.
To assess the stability of hepcidin in serum and plasma matrices, we kept samples from intensive care patients (n = 20) and healthy controls (n = 5) at room temperature for 0–7 days followed by WCX-TOF MS analysis using the hepcidin-25^+40 internal standard. […] For the samples at day 1 and day 7, the mean decrease in hepcidin-25 for the 5 controls and 20 intensive care patients was 90% (CV, 8% ) and 55% (CV, 23%), respectively (Table 3).

CC[C@H](C)[C@@H]1NC(=O)[C@@H](NC(=O)[C@@H](NC(=O)[C@@H]2CCCN2C(=O)[C@H](Cc2ccccc2)NC(=O)[C@H](Cc2c[nH]cn2)NC(=O)[C@@H](NC(=O)[C@@H](N)CC(=O)O)[C@@H](C)O)[C@@H](C)CC)CSSC[C@@H](C(=O)N[C@@H](CCCCN)C(=O)N[C@H](C(=O)O)[C@@H](C)O)NC(=O)[C@@H]2CSSC[C@H](NC(=O)[C@H](Cc3ccccc3)NC1=O)C(=O)N[C@H]1CSSC[C@H](NC(=O)[C@H](CCCCN)NC(=O)[C@H](CO)NC(=O)[C@H](CCCNC(=N)N)NC(=O)[C@H](Cc3c[nH]cn3)NC(=O)[C@@H]3CSSC[C@H](NC(=O)CNC1=O)C(=O)N3)C(=O)NCC(=O)N[C@@H](CCSC)C(=O)N2 [Hepcidin-25]
Hepcidin level after one day at 4°C, EDTA plasma (average, % of fresh, 10 IC patients and 5 controls, results <1.0 nM deleted, CV (Hep-25/-24/-22/-20) 11/6/11/22, n = 15/8/6/9): 101% | Hepcidin level after one week at 4°C, EDTA plasma (average, % of fresh, 7 days, 10 IC patients and 5 controls, CV (Hep-25/-24/-22/-20) 9/8/18/21, n = 15/8/6/9, hepcidin-20 in stored EDTA plasma unreliable (additional peak)): 101% | stability at 4°C for 0–7 days (heparin and EDTA plasma (10 IC patients, 5 controls), citrate plasma and serum (5 controls)): remained stable | Hepcidin level after one week at RT ([1]; average, % of fresh sample, 7 days, human heparin plasma, 19 IC patients + 5 controls, results <1.0 nM removed, WCX-TOF MS, hepcidin-25^+40 internal standard, CV (Hep-25/-24/-22/-20/Total) 23/29/29/38/17, n = 24/15/13/18/11): 55% | Hepcidin level after one day at RT ([1]; average, % of fresh sample, human heparin plasma, 19 IC patients + 5 controls, results <1.0 nM removed, WCX-TOF MS, hepcidin-25^+40 internal standard, CV (Hep-25/-24/-22/-20/Total) 8/21/14/25/5, n = 24/15/13/18/11): 90% | Hepcidin level after one week at RT, without protease inhibitors ([1]; average, % of fresh, 7 days, heparin plasma, 10 IC patients, results <1 nM excluded, CV (Hep-25/-24/-22/-20) 30/31/23/41, n = 10/8/7/8): 48% | Hepcidin level after one day at RT, without protease inhibitors ([1]; average, % of fresh, heparin plasma, 10 IC patients, results <1 nM excluded, CV (Hep-25/-24/-22/-20) 13/20/11/11, n = 10/8/7/8): 89% | mean hepcidin-25 level remaining at day 1 at RT, % of fresh ([1]; heparin plasma, 5 controls and 20 intensive care patients, CV 8%): 90% | effect of protease inhibitors on hepcidin-25 decrease ([1]; heparin samples of IC patients (n = 10), RT): prevented hepcidin-25 processing to a certain extend but did not block its decrease completely | remaining at 168 h ([1]; human, average, % of fresh, 7 days, heparin plasma, 10 IC patients, Complete Mini (Roche), CV (Hep-25/-24/-22/-20) 25/35/9/25, n = 10/8/7/8, read-out: Hepcidin level after one week at RT, with protease inhibitors): 69% | remaining at 1 day ([1]; human, average, % of fresh, heparin plasma, 10 IC patients, Complete Mini (Roche), 1 tablet in 200 µL PBS, 20 µL per 1 ml plasma, CV (Hep-25/-24/-22/-20) 8/30/4/14, n = 10/8/7/8, read-out: Hepcidin level after one day at RT, with protease inhibitors): 91%
